Laboratory results published in US20230357189A1, “MODIFIED FLUOROQUINOLONES AND USES THEREOF” (Technion Research & Development Foundation Limited, priority 2021, published 2023).
Converted amounts (≈) assume the structure as drawn.

How the values were obtained:
[1] = system: Bacillus Subtilis; assay: Antibacterial activity, MIC by double-microdilution method; type: cell-based; settings: Table 2, Bacillus Subtilis; for MIC: read-out: Gram-positive MIC d
[2] = system: Escherichia coli 25922; assay: as above; type: cell-based; settings: Table 2, Escherichia coli 25922; for MIC: read-out: Gram-negative MIC b
[3] = target: T1, E. coli DNA gyrase (Escherichia coli, UniProt P0AES4+P0AES6); assay: E. coli Gyrase-DNA supercoiling assay; type: biochemical; settings: supercoiling of relaxed pHOT-1 plasmid in presence of ATP; 37° C., 60 minutes
T1 construct: purchased TopoGEN
Description: The DNA supercoiling reactions were based on the manufacturer protocol (TopoGEN). The amount of DNA gyrase used in each assay was optimized by testing various dilutions of the stock. The amount sufficient to supercoil 250 nanograms (ng) of the substrate in 1 hour at 37° C. was then used for testing the compounds (1.1 U as defined by manufacturer). Assays (30 μL) contained 250 nanograms of relaxed pHOT1 plasmid DNA in Tris-HCl buffer (35 mM), pH 7.5, containing KCl (24 mM), MgCl2 (4 mM), DTT (2 mM), Spermidine (1.8 mM), ATP (1 mM), 6.5% (w/v) glycerol and bovine serum albumin (0.1 mg/ml). Reactions were incubated at 37° C. for 60 minutes. Reaction mixtures were stopped by the addition of 30 μL of loading buffer (40% sucrose, 100 mM Tris·HCl (pH 7.5), 1 mM EDTA, 0.5 mg×mL^−1 bromophenol blue) and worked up using 30 μL of 24:1 chloroform/isoamyl alcohol mixture; the aqueous layer was then analyzed using electrophoresis.
Electrophoresis, gel staining, DNA visualization and DNA quantification were performed as described for the DNA cleavage assays.

[4] = system: Gram-negative and Gram-positive bacteria; assay: Comparative antibacterial activity, all tested bacteria; type: cell-based; settings: MIC, Table 2 and 3
Description: Comparative antibacterial activities were determined by measuring the MIC values by using the double-microdilution method according to the National Committee for Clinical Laboratory Standards (NCCLS). The Luria-Bertani growth medium and polypropylene 96-well plates (Thermo) were used unless otherwise stated. All the experiments were performed in triplicate, and analogous results were obtained in three different experiments.
Compounds 1-6 and their Cu(II) and Co(III) complexes, as well as the pendant-bearing compounds 19-23 and 26 were tested for their comparative antibacterial activity by determining MIC values against two Gram-negative E. coli strains (AR477-100 and 25922) and two Gram-positive strains, Staphylococcus Epidermidis, and Bacillus Subtilis.

[5] = system: Staphylococcus Epidermidis; assay: Antibacterial activity, MIC by double-microdilution method; type: cell-based; settings: for MIC: Table 2, read-out: Gram-positive MIC c
[6] = system: Escherichia coli R477-100; assay: as above; type: cell-based; settings: Table 2, Escherichia coli R477-100, without DTT; for MIC: R477100, read-out: Gram-negative MIC a
[7] = system: supercoiled (+) pHOT-1 plasmid DNA; assay: DNA cleavage assay (gel electrophoresis); type: biochemical
[8] = system: supercoiled (+) pHOT-1 plasmid DNA; assay: DNA cleavage assay (gel electrophoresis); type: biochemical; remark: listed apart in the source
Description: Removal of Ligands Prior to Electrophoresis was performed when more than 100 μM of Cu(II)-ligand or Co(III) ligand (at any concentration) complexes were employed that is, for DNA cleavage assays that were performed in the absence of any adjuvants. An Amberlyst® 15 (Sigma Aldrich) ion-exchange resin was prepared according to the reported literature [Hettich et al. J. Am. Chem. Soc. 1997, 119 (24), 5638-5647] and stored at −20° C. Before use, 0.5 gram of the exchanger was mixed with 250 μL of water. After stopping the DNA-cleavage reaction by addition of EDTA (54 mM, 15 minutes incubation at 37° C.), 10 μL of the exchanger suspension was added, vortexed, and incubated at 37° C. for 15 minutes before centrifugation and electrophoresis.
DNA cleavage activity of the tested Complexes towards supercoiled (+) pHOT-1 plasmid DNA (TopoGEN) was monitored by gel electrophoresis. In a typical experiment, plasmid DNA (200 ng, […]) in HEPES buffer (50 mM, pH 7.4) was mixed with different concentrations of a tested metal complex in the presence or absence of ascorbic acid (0.32 mM). All stock solutions of buffers and of the metal complexes were prepared using HPLC grade water (ChromAR®). Molecular biology reagent grade water (Sigma) was added up to a total reaction volume of 30 μL before incubation for a given time. For the ascorbic acid assays, the reaction was quenched immediately after incubation with EDTA (54 mM). For analysis, 10 μL of loading buffer (40% sucrose, 100 mM Tris-HCl (pH 7.5), 1 mM EDTA, 0.5 mg·mL^−1 bromophenol blue) was added to the incubated solution and loaded onto an agarose (SeaKem LE) gel [1% in TAE×1 buffer (40 mM Tris, 20 mM acetic acid, 1 mM EDTA)]. Electrophoresis was carried out at 60 V for 2 hours. Gels were stained with 1 μg·mL^−1 ethidium bromide for 30 minutes and de-stained in TAE×1 buffer. DNA bands were visualized with medium-range ultraviolet light using Bio-Rad Gel Doc XR+ imaging system. The quantity of different DNA forms (I or II) was estimated using ImageJ software.
Chem. 2015, 2015 (28), 4722-4730; Kashiba-Iwatsuki et al. FEBS Lett. 1996, 389 (2), 149-15].
The copper complex of compound 2 (2-Cu(II)) was used as the positive control in these assays.

T1 sequence (P0AES4 whole entry, one chain of several): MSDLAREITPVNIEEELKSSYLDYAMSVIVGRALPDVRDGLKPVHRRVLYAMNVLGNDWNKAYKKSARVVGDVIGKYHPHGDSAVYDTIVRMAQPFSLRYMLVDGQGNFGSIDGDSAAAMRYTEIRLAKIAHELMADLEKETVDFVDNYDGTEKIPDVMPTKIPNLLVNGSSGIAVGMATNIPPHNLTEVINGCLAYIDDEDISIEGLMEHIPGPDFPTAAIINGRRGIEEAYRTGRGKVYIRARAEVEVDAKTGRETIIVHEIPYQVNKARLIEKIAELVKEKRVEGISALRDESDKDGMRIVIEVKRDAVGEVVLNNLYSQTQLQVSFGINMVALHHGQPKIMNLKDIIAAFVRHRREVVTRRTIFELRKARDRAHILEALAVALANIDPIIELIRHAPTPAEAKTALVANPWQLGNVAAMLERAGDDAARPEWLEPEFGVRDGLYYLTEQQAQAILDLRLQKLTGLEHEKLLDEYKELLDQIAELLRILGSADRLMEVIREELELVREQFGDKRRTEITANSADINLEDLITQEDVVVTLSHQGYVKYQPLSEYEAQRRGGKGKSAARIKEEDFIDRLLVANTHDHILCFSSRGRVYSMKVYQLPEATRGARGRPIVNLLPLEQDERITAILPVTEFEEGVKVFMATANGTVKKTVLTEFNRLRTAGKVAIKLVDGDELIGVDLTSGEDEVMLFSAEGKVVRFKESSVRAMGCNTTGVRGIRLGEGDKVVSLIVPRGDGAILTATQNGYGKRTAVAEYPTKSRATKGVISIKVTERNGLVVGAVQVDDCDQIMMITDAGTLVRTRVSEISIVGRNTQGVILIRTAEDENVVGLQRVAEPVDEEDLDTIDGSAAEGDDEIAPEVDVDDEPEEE

Structure (SMILES) | MIC [1] [µg/mL] | MIC [2] [µg/mL] | IC50 [3] [nM] | antibacterial activity (in words) [4] | MIC [5] [µg/mL] | MIC [6] [µg/mL] | other results
O=C(O)c1cn(C2CC2)c2cc(N3CCN(Cc4ccc(CCCN5CCNCCNCCNCC5)cc4)CC3)c(F)cc2c1=O [Compound 6] | 3 (≈ 4.73 µM) | 1.5 (≈ 2.37 µM) | 70 ± 20 | slightly higher activity | 1.5 (≈ 2.37 µM) | 3 (≈ 4.73 µM) | –
O=C(O)c1cn(C2CC2)c2cc(N3CCN(Cc4ccc(CCN5CCNCCNCCNCC5)cc4)CC3)c(F)cc2c1=O [Compound 5] | 3 (≈ 4.84 µM) | 3 (≈ 4.84 µM) | 150 ± 40 | slightly higher activity | 3 (≈ 4.84 µM) | 6 (≈ 9.68 µM) | –
C1CNCCNCCNCCN1.O.[Co+3].[OH-] [Co(III)-cyclen, reference compound] | – | – | – | – | – | – | DNase activity in TRIS buffer with ATP ([7]; 50 mM TRIS buffer, 1.8 mM ATP): not inhibited by ATP; DNase activity in TRIS buffer with glutamate ([7]; 50 mM TRIS buffer, 100 mM potassium glutamate): very strongly inhibited by glutamate; DNase activity at micromolar concentrations ([8]; FIG. 32: 0.2 μg DNA over 2 hours (Co(III)-cyclen, 4-Co(III)), 0.6 μg DNA over 10 hours (23-Co(III))): inactive; effect of Co(III) complexes on plasmid DNA ([8]; absence of adjuvants, HEPES pH 7.4, 0.5 hours, micromolar concentrations): no effect whatsoever
O.O=C(O)c1cn(C2CC2)c2cc(N3CCN(Cc4ccc(CCN5CCNCCNCCNCC5)cc4)CC3)c(F)cc2c1=O.[Cu+2] [5-Cu(II)] | – | – | 180 ± 30 | – | – | – | Gram-positive MIC d [1]: 3 µg/mL; oxidative cleavage activity in Tris buffer with DTT ([7]; Tris-HCl buffer (35 mM, pH 7.5), DTT (2 mM), complex 0.5 mM, 2.5 hours): retain significant oxidative cleavage activity; hydrolytic DNA cleavage in presence of Tris-buffer or spermidine ([7]; complex 0.5 mM, 2.5 hours): inhibit the hydrolytic DNA cleavage of plasmid DNA; Gram-negative MIC b [2]: 6 µg/mL; DNase activity (cleavage of supercoiled plasmid, form I to form II) ([8]; absence of adjuvants, HEPES buffer (50 mM, pH 7.4), 5 hours): significant cleavage enhancement even in relation to the activity of 1-Cu(II) and 4-Cu(II); effect of NaN3 on cleavage ([8]; ascorbic acid (0.32 mM), complex 0.01 mM, scavenger 10 mM, 2 hours): no inhibition whatsoever; effect of hydroxyl radical scavengers DMSO and t-BuOH on cleavage ([8]; no adjuvants, complex 0.5 mM, scavengers 10 mM, 5 hours): no significant inhibitory effect; Gram-positive MIC c ([5]; Table 2): 6 µg/mL; Gram-negative MIC a [6]: 6 µg/mL
